According to article PMC10698194 (Nature Communications, 2023):
“And” between values parts separate entries of the source, which are not always exact repeats. Identical values can stand only once. Like-named read-outs stand apart in the source and are kept apart here.

Tests used:
mouse KOR, Gαgustducin = mouse KOR, Gαgustducin (Mus musculus, UniProt P33534); test: TRUPATH BRET G protein assay, Gαgustducin; format: cell-based; details: read-out: Emax (%) Gαgustducin
mouse KOR, GαoB = mouse KOR, GαoB (Mus musculus, UniProt P33534); test: TRUPATH BRET G protein assay, GαoB; format: cell-based; details: TRUPATH; read-out: Emax (%) GαoB
mouse KOR, GαoB, sequence (P33534 whole entry): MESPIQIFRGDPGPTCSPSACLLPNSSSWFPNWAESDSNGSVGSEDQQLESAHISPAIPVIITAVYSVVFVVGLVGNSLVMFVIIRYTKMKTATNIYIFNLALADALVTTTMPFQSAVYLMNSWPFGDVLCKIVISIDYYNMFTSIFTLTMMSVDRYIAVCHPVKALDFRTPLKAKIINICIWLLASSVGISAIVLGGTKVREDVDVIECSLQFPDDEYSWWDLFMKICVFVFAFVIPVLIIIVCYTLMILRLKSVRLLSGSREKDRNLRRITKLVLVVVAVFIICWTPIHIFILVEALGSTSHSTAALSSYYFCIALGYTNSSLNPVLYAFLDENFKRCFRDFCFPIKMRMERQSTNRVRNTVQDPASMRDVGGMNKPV
mouse KOR, GαoB, sequence (P09471 2-354 partner): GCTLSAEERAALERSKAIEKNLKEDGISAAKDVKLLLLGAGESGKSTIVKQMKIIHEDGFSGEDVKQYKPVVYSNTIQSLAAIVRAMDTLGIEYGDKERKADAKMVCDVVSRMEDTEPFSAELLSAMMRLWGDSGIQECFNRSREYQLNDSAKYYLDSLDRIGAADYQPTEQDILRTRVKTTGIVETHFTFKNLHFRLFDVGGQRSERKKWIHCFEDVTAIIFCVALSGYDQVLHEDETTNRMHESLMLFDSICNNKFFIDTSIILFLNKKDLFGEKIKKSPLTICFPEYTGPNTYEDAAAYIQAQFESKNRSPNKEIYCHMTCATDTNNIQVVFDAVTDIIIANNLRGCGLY

mouse KOR, Gαi3 = mouse KOR, Gαi3 (Mus musculus, UniProt P33534); test: TRUPATH BRET G protein assay, Gαi3; format: cell-based; details: TRUPATH; read-out: Emax (%) Gαi3
mouse KOR, Gαi3, sequence (P33534 whole entry): as the sequence (P33534 whole entry) above
mouse KOR, Gαi3, sequence (P08754 2-354 partner): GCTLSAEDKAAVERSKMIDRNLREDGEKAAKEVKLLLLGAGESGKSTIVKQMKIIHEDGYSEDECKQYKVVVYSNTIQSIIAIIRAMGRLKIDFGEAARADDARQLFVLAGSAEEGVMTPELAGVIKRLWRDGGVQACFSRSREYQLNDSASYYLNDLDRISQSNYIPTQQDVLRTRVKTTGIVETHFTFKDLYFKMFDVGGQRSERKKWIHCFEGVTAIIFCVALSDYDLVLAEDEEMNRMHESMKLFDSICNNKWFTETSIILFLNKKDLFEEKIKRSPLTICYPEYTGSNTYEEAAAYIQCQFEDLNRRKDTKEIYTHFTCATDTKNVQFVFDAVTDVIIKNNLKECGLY

mouse KOR, Gαz = mouse KOR, Gαz (Mus musculus, UniProt P33534); test: TRUPATH BRET G protein assay, Gαz; format: cell-based
mouse KOR, Gαz, sequence (P33534 whole entry): as the sequence (P33534 whole entry) above
mouse KOR, Gαz, sequence (P19086 2-355 partner): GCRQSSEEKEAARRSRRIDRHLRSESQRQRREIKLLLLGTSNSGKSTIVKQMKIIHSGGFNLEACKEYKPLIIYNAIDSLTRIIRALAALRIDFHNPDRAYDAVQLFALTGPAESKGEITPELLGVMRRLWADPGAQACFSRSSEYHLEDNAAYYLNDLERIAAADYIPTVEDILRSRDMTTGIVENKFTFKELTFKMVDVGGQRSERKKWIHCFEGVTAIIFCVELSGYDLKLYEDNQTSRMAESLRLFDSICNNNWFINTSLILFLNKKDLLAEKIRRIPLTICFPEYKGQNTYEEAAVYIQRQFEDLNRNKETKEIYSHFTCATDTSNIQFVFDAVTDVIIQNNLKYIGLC

mouse KOR, Gαi1 = mouse KOR, Gαi1 (Mus musculus, UniProt P33534); test: TRUPATH BRET G protein assay, Gαi1; format: cell-based; details: TRUPATH; read-out: Emax (%) Gαi1
mouse KOR, Gαi1, sequence (P33534 whole entry): as the sequence (P33534 whole entry) above
mouse KOR, Gαi1, sequence (P63096 2-354 partner): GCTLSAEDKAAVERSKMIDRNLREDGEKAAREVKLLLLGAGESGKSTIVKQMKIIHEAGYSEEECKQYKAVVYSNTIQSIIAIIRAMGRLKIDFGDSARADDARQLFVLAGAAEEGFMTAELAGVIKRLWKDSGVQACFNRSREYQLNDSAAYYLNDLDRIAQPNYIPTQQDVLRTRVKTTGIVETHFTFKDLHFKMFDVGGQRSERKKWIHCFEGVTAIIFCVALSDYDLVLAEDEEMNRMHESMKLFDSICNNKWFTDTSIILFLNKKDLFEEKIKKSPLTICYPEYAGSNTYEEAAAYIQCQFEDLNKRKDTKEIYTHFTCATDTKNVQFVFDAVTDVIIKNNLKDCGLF

human KOR [1] = target: T1, human KOR (Homo sapiens, UniProt P41145); test: cell-based; design: expressed in transfected cells; host or cells: HEK293, transient
T1 sequence (P41145 whole entry): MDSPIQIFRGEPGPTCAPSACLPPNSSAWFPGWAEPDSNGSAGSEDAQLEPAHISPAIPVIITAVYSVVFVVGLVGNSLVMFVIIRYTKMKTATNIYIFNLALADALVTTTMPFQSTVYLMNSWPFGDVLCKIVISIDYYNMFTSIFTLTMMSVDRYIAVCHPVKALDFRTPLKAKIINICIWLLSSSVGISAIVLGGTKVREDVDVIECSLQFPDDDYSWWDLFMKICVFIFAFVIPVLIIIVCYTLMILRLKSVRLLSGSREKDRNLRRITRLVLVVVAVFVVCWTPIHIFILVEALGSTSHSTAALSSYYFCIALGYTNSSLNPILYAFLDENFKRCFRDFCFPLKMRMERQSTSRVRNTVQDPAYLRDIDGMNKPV

mouse KOR, Gαi2 = target: T2, mouse KOR, Gαi2 (Mus musculus, UniProt P33534); test: TRUPATH BRET G protein assay, Gαi2; format: cell-based
T2 construct: expressed in transfected cells; host or cells: HEK293T (ATCC, CRL-3216), transient
T2 sequence (P33534 whole entry): as the sequence (P33534 whole entry) above

mouse KOR, GαoA = mouse KOR, GαoA (Mus musculus, UniProt P33534); test: TRUPATH BRET G protein assay, GαoA; format: cell-based; details: TRUPATH; read-out: Emax (%) GαoA
mouse KOR, GαoA, sequence (P33534 whole entry): as above
mouse KOR, GαoA, sequence (P09471 2-354 partner): as the sequence (P09471 2-354 partner) above

mouse KOR [2] = target: T3, mouse KOR (Mus musculus, UniProt P33534); test: biochemical; format: binding; design: expressed in transfected cells; details: for specific [3H]DPN binding, normalized to 100%: replicates
Target sequence in this assay (P33534 whole entry): as the sequence (P33534 whole entry) above

human KOR [3] = target: T1, human KOR; test: [35S]GTPγS binding assay, CHO membranes; format: biochemical; design: expressed in transfected cells; details: for stimulation of [35S]GTPγS binding, normalized: replicates
mouse KOR [4] = target: T3, mouse KOR; test: cell-based; design: expressed in transfected cells; host or cells: HEK293T, transient; details: for β-arrestin-2 recruitment, normalized: replicates
Target sequence in this assay (P33534 whole entry): as above
Target sequence in this assay (P32121 whole entry partner): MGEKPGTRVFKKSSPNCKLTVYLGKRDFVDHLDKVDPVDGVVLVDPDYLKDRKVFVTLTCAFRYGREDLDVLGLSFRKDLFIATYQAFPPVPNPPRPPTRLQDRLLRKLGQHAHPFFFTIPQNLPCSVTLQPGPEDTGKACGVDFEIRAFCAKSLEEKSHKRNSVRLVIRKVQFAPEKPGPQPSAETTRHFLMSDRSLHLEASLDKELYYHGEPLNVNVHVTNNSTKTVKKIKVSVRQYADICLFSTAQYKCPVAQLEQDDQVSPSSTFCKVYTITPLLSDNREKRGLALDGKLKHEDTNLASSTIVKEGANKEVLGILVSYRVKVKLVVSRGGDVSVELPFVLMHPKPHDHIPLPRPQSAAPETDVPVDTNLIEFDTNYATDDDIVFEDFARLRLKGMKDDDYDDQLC

human DOR = target: T4, human DOR (Homo sapiens, UniProt P41143); test: [35S]GTPγS binding assay, CHO membranes; format: biochemical
T4 construct: expressed in transfected cells
T4 sequence (P41143 whole entry): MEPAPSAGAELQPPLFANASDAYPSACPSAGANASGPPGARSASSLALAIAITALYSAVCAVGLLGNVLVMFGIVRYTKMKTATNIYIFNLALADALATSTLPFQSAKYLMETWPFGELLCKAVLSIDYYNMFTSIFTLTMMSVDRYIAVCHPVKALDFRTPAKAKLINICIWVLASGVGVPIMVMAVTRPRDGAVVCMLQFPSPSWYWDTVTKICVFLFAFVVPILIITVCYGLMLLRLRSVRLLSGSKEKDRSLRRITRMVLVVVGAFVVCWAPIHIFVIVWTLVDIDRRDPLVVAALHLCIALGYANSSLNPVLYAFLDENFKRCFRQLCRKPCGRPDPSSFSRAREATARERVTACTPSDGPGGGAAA

human MOR = target: T5, human MOR (Homo sapiens, UniProt P35372); test: [35S]GTPγS binding assay, CHO membranes; format: biochemical
T5 construct: expressed in transfected cells
T5 sequence (P35372 whole entry): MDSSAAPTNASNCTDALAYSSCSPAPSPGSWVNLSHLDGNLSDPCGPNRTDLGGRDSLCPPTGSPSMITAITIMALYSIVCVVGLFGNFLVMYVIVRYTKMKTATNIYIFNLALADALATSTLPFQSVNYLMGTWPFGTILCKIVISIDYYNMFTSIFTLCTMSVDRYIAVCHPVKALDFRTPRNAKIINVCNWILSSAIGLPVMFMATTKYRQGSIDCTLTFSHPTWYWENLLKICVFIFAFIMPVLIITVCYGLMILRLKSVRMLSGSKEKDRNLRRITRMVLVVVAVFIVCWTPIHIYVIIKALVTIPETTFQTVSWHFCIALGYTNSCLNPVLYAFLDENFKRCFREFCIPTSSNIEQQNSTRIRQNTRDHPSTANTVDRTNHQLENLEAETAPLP

mouse KOR [5] = target: T3, mouse KOR; test: cell-based; design: expressed in transfected cells
Target sequence in this assay (P33534 whole entry): as the sequence (P33534 whole entry) above

human KOR E209A [6] = target: T6, human KOR E209A (Homo sapiens, UniProt P41145, E209A); format: cell-based
T6 construct: FLAG; expressed in transfected cells; host or cells: HEK293 / HEK293T, transient
T6 sequence (P41145 whole entry E209A): as the sequence (P41145 whole entry) above, with E209A counted along it

human KOR E297A [7] = target: T7, human KOR E297A (Homo sapiens, UniProt P41145, E297A); format: cell-based
T7 construct: FLAG; expressed in transfected cells; host or cells: HEK293T
T7 sequence (P41145 whole entry E297A): as the sequence (P41145 whole entry) above, with E297A counted along it

human KOR WT [8] = target: T8, human KOR WT (Homo sapiens, UniProt P41145); test: BRET β-arrestin-2 biosensor assay; format: cell-based
T8 construct: FLAG; expressed in transfected cells; host or cells: HEK293T, transient
T8 sequence (P41145 whole entry): as the sequence (P41145 whole entry) above

in vitro = details: human, serum, serum stability, amount remaining, Figure S15
Experimental: (§1) Blood was drawn from healthy volunteers devoid of any medication for 14 days from the antecubital vein using 21 G needles and collected in a serum clot activator tube (4 mL tubes, Greiner bio-one). […] Volunteers gave written informed consent before blood donation. […] Blood samples were collected into Vacuette® clot activator tubes (Greiner Bio-One, Austria). After clotting of about 2 h, the samples were centrifuged at 2200 × g for 15 min at 22 °C. The serum was removed and centrifuged again to remove lipids and cell particles at 16,000 × g at 4 °C for 20 min. […] The samples were incubated at 37 °C under continuous shaking at 300 rotations-per-minute. […] The samples were mixed well and incubated on ice for 10 min. For the protein precipitation, 30 µL of a 20% (w/v) trichloroacetic acid was added and incubated on ice for 15 min. The clear supernatant was harvested by centrifugation at 16,000 × g at 4 °C for 20 min and this sample was used for HPLC analysis. The chromatography HPLC system was a ThermoFisher Ultimate 3000 equipped with a pump, autosampler and single wavelength detector. […] The remaining peptide was calculated relative to the AUC at time point zero. The data points were fitted to a one-phase decay function and to determine the resulting half-life of the peptide in serum.
(§2) 0.1% trifluoroacetic acid in water and acetonitrile/water trifluoroacetic acid 90/10/0.1% (v/v/v) with a
linear separation gradient over 30 min.

human KOR E209A [9] = target: T6, human KOR E209A; test: BRET β-arrestin-2 biosensor assay; format: cell-based
human KOR WT [10] = target: T8, human KOR WT; format: cell-based
human KOR L309A [11] = target: T9, human KOR L309A (Homo sapiens, UniProt P41145, L309A); test: BRET β-arrestin-2 biosensor assay; format: cell-based
T9 construct: FLAG; expressed in transfected cells; host or cells: HEK293T
T9 sequence (P41145 whole entry L309A): as the sequence (P41145 whole entry) above, with L309A counted along it

human KOR WT [12] = target: T8, human KOR WT; test: cAMP inhibition assay normalized to salvinorin A; format: cell-based
human KOR E297A [13] = target: T7, human KOR E297A; test: BRET β-arrestin-2 biosensor assay; format: cell-based
[14] = human
Experimental: as §1, §2
linear separation gradient over 30 min.

human KOR L309A [15] = target: T9, human KOR L309A; format: cell-based

mouse KOR, Gαgustducin, sequence (P33534 whole entry): as the sequence (P33534 whole entry) above
mouse KOR, Gαgustducin, sequence (A8MTJ3 2-354 partner): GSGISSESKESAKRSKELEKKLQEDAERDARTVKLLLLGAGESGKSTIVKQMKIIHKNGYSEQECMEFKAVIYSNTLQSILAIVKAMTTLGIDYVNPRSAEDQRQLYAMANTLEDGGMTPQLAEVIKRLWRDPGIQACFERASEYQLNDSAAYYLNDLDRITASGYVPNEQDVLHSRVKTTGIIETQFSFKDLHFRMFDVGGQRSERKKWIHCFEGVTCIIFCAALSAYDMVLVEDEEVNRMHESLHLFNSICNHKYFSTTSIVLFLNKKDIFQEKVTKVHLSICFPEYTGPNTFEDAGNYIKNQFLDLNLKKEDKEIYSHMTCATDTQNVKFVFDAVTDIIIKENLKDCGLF

O=C(NC1C=CC2C3Cc4ccc(O)c5c4C2(CCN3CC2CC2)C1O5)c1cccc(I)c1 (stereo not shown) [MP1104]
Emax (mouse KOR, Gαgustducin): 95 ± 5% | Emax (mouse KOR, GαoB): 101 ± 8% | Emax (mouse KOR, Gαi3): 85 ± 3% | highest potency (mouse KOR, Gαz; Gαz subtype): picomolar range | Emax (mouse KOR, Gαz; TRUPATH): 101 ± 3% | Emax (mouse KOR, Gαi1): 100 ± 4% | potency (log EC50) β-arrestin-2 (human KOR [1]): -8.493 | β-arrestin-2 (Figure 3j) (human KOR [1]): 91 | Emax (human KOR [1]; HEK293, read-out: Emax β-arrestin-1 recruitment): 91 ± 8% | potency (log EC50) Gαi2 (mouse KOR, Gαi2; Fig. 3i spider plot): -9.607 | Gαi2, normalized response (single replicate values) (mouse KOR, Gαi2; Log [ligand] (M) -5): 68.8651 and 55.859 and 33.3938 and 78.3335 and 54.4028 and 51.6416 and 70.9702 and 67.6827 | Gαi2, normalized response (single replicate values) (mouse KOR, Gαi2; Log [ligand] (M) -6): 66.5004 and 68.8651 and 52.3118 and 47.96 and 45.1988 and 59.9253 and 82.9355 and 80.6889 | Gαi2, normalized response (single replicate values) (mouse KOR, Gαi2; Log [ligand] (M) -7): 70.0475 and 61.7708 and 39.3057 and 73.7314 and 51.6416 and 42.4375 and 78.3335 and 51.1294 | Gαi2, normalized response (single replicate values) (mouse KOR, Gαi2; Log [ligand] (M) -8): 83.0537 and 70.0475 and 49.9471 and 81.0947 and 82.9355 and 89.3784 and 101.344 and 61.7708 | Gαi2, normalized response (single replicate values) (mouse KOR, Gαi2; Log [ligand] (M) -9): 49.9471 and 40.488 and 71.2299 and 59.0049 and 80.1743 and 78.3335 and 46.1192 and 33.3938 | Gαi2, normalized response (single replicate values) (mouse KOR, Gαi2; Log [ligand] (M) -10): 20.3876 and 60.5885 and 12.111 and 42.4375 and 46.1192 and 22.1885 and 25.8702 and 19.2052 | Gαi2, normalized response (single replicate values) (mouse KOR, Gαi2; Log [ligand] (M) -11): -28.0899 and -9.172 and -25.7252 and 25.8702 and -9.105 and 27.711 and -46.8421 and 9.7462 | Gαi2, normalized response (single replicate values) (mouse KOR, Gαi2; Log [ligand] (M) -12): 21.57 and -2.078 and 28.6643 and 3.78 and 2.86 and 9.303 (2×) and 6.199 | Emax (mouse KOR, Gαi2; TRUPATH): 65 ± 6% | Gαi2 (Figure 3j) (mouse KOR, Gαi2; source data of Figure 3j, U50,488 about 100): 64.9839 | Emax (mouse KOR, GαoA): 87 ± 7%

C=CCN1CC[C@]23c4c5ccc(O)c4O[C@H]2[C@H](N)CC[C@@]3(O)[C@H]1C5 [β-NalA, β-naloxamine]
Ki (mouse KOR [2]): 72 nM | specific [3H]DPN binding, normalized to 100% (mouse KOR [2]; Log [ligand] (M) -5): 4.737 and -0.7945 and 2.618 | specific [3H]DPN binding, normalized to 100% (mouse KOR [2]; Log [ligand] (M) -5.5): 7.624 and 1.593 and 6.477 | specific [3H]DPN binding, normalized to 100% (mouse KOR [2]; Log [ligand] (M) -6): 15.6906 and 8.934 and 15.8979 | specific [3H]DPN binding, normalized to 100% (mouse KOR [2]; Log [ligand] (M) -6.5): 35.1232 and 21.428 and 37.6169 | specific [3H]DPN binding, normalized to 100% (mouse KOR [2]; Log [ligand] (M) -7): 55.6281 and 51.2816 and 59.6036 | specific [3H]DPN binding, normalized to 100% (mouse KOR [2]; Log [ligand] (M) -7.5): 78.1171 and 80.8645 and 81.4583 | specific [3H]DPN binding, normalized to 100% (mouse KOR [2]; Log [ligand] (M) -8): 95.8025 and 95.1499 and 93.7293 | specific [3H]DPN binding, normalized to 100% (mouse KOR [2]; Log [ligand] (M) -8.5): 97.8462 and 101.481 and 96.8345 | specific [3H]DPN binding, normalized to 100% (mouse KOR [2]; Log [ligand] (M) -9): 98.6307 and 97.8789 and 97.5636 | specific [3H]DPN binding, normalized to 100% (mouse KOR [2]; Log [ligand] (M) -9.5): 100 | EC50 (human KOR [3]): 150 nM | Emax (human KOR [3]): 22% | stimulation of [35S]GTPγS binding, normalized (human KOR [3]; Log [ligand] (M) -5): 26.3 and 15.7 and 17.2 | stimulation of [35S]GTPγS binding, normalized (human KOR [3]; Log [ligand] (M) -6): 26.7 and 25.9 and 13 | stimulation of [35S]GTPγS binding, normalized (human KOR [3]; Log [ligand] (M) -6.5): 25.5 and 13.8 | stimulation of [35S]GTPγS binding, normalized (human KOR [3]; Log [ligand] (M) -7): 15.4 and 11.8 and 3.2 | stimulation of [35S]GTPγS binding, normalized (human KOR [3]; Log [ligand] (M) -7.5): 4.1 | stimulation of [35S]GTPγS binding, normalized (human KOR [3]; Log [ligand] (M) -8): 17.5 and 5.8 and 1.8 | stimulation of [35S]GTPγS binding, normalized (human KOR [3]; Log [ligand] (M) -8.5): 4 | stimulation of [35S]GTPγS binding, normalized (human KOR [3]; Log [ligand] (M) -9): 20.6 and 20.7 and 0 | stimulation of [35S]GTPγS binding, normalized (human KOR [3]; Log [ligand] (M) -10): 8.5 and 3.1 and 0.3 | stimulation of [35S]GTPγS binding, normalized (human KOR [3]; Log [ligand] (M) -11): 8.8 and 6 and 1 | stimulation of [35S]GTPγS binding, normalized (human KOR [3]; Log [ligand] (M) -12): 2 | EC50 (mouse KOR [4]): 15 nM | β-arrestin-3 (Figure 3j) (mouse KOR [4]): 50.66 | Emax (mouse KOR [4]; HEK-293T, read-out: Emax β-arrestin-2 recruitment): 51% | β-arrestin-2 recruitment, normalized (mouse KOR [4]; Log [ligand] (M) -5): 75.0642 and 33.7213 and 53.9146 | β-arrestin-2 recruitment, normalized (mouse KOR [4]; Log [ligand] (M) -6): 47.1252 and 26.1295 and 56.8071 | β-arrestin-2 recruitment, normalized (mouse KOR [4]; Log [ligand] (M) -7): 55.6969 and 39.8004 and 43.7179 | β-arrestin-2 recruitment, normalized (mouse KOR [4]; Log [ligand] (M) -8): 23.8448 and 3.34 and 20.2841 | β-arrestin-2 recruitment, normalized (mouse KOR [4]; Log [ligand] (M) -9): 18.9925 and 16.6241 | β-arrestin-2 recruitment, normalized (mouse KOR [4]; Log [ligand] (M) -10): 9.149 and -15.1009 and 26.0906 | agonist response at DOR, Figure S13b (human DOR; Log [ligand] (M) -5): 29.5 and 25.6 | agonist response at DOR, Figure S13b (human DOR; Log [ligand] (M) -5.5): 26.4 and 22 | agonist response at DOR, Figure S13b (human DOR; Log [ligand] (M) -6.5): 11.6 and 22.3 | agonist response at DOR, Figure S13b (human DOR; Log [ligand] (M) -7): 11.8 and 10.9 and 6.8 | EC50 (M) DOR (human DOR; [35S]GTPγS): no stimulation up to 10 µM | agonist response at MOR, Figure S13a (human MOR; Log [ligand] (M) -9): 0.0 | EC50 (M) MOR (human MOR; [35S]GTPγS): no stimulation up to 10 µM | EC50 (mouse KOR [5]): 130 nM | Emax (mouse KOR [5]; HEK-293T, read-out: Emax cAMP assay): 61%

CC[C@H](C)[C@H](NC(=O)[C@H](CCCN=C(N)N)NC(=O)[C@H](CCCN=C(N)N)NC(=O)[C@H](CC(C)C)NC(=O)[C@H](Cc1ccccc1)NC(=O)CNC(=O)CNC(=O)[C@@H](N)Cc1ccc(O)cc1)C(=O)N[C@@H](CCCN=C(N)N)C(=O)N1CCC[C@H]1C(=O)N[C@@H](CCCCN)C(=O)N[C@@H](CC(C)C)C(=O)N[C@@H](CCCCN)C(N)=O [dynA1-13]
EC50 (human KOR E209A [6]): 0.148 nM | EC50 (human KOR E297A [7]): 0.204 nM | EC50 (human KOR WT [8]): 0.617 nM | EC50 (mouse KOR [4]; EC50 β-arrestin-2 recruitment): 31 nM | EC50 (mouse KOR [4]; potency (log EC50) β-arrestin-3): 31 nM | remaining at 5 min (in vitro): 106% | remaining at 10 min (in vitro): 85% | remaining at 20 min (in vitro): 66% | remaining at 40 min (in vitro): 33% | remaining at 1 h (in vitro): 7% | remaining at 2 h (in vitro): 2% | remaining at 4 h (in vitro): 0% | remaining at 6 h (in vitro): 0.1% | remaining at 24 h (in vitro): 0.1% | remaining at 48 h (in vitro): 5% | EC50 (human KOR E209A [9]): 6.61 nM | EC50 (human KOR WT [10]): 0.0437 nM | EC50 (human KOR L309A [11]): 1.32 nM | EC50 (human KOR WT [12]): 5.01 pM | EC50 (human KOR E297A [13]): 7.94 nM | serum stability, amount remaining, Figure S15 [14]: 100 | serum stability, amount remaining, Figure S15 ([14]; 40 min): 30 | serum stability, amount remaining, Figure S15 ([14]; 1 h): 6 | EC50 (mouse KOR [5]): 4.9 ± 1.8 nM | EC50 (human KOR L309A [15]): 0.0302 nM
